According to US20250381179A1, “CHROMAN-BASED COMPOUNDS FOR TREATING CANCER” (priority 2024, published 2025):

Experiment: Phase 1 study: safety and tolerability (TEAEs, NCI CTCAE v5.0)
Experimental: The study employed an open-label, 3+3 design, with the option of adding backfill patients to each cohort cleared and deemed safe. […] Tumor responses were assessed every 2 cycles using RECIST v1.1 criteria. […] The study also involves an ongoing dose escalation study where participants receive 100 mg, 200 mg, 300 mg, 400 mg, and 600 mg once daily (QD) dose levels.
Safety was assessed through the analysis of the reported incidence of treatment-emergent AEs. Treatment-emergent AEs are those with an onset on or after the initiation of therapy and will be graded according to NCI CTCAE Version 5.0. Other safety endpoints, including laboratory results, vital signs, and ECG findings, were summarized for all patients in the Safety set.

## O=C1CC[C@H](N2Cc3cc(N4CCN(CC5CCN(c6ccc([C@@H]7c8ccc(O)cc8OC[C@@H]7c7ccccc7)cc6F)CC5)CC4)ccc3C2=O)C(=O)N1 [compound (1-g), (S)-3-(5-(4-((1-(2-fluoro-4-((3S,4R)-7-hydroxy-3-phenylchroman-4-yl)phenyl)piperidin-4-yl)methyl)piperazin-1-yl)-1-oxoisoindolin-2-yl)piperidine-2,6-dione]
300 mg QD (N = 11)
  TEAE: Pneumonia: 0 n (%)
  TEAE: Productive Cough: 0 n (%)
  TEAE: Rash Maculo-Papular: 0 n (%)
  TEAE: Rhinitis Allergic: 1 (9.1) n (%)
  TEAE: Rib Fracture: 0 n (%)
  TEAE: Seizure: 0 n (%)
  TEAE: Sepsis: 0 n (%)
  TEAE: Tremor: 1 (9.1) n (%)
  TEAE: Upper Respiratory Tract Infection: 1 (9.1) n (%)
  TEAE: Urinary Tract Infection: 1 (9.1) n (%)
  TEAE: Vaginal Haemorrhage: 1 (9.1) n (%)
  TEAE: Vomiting: 1 (9.1) n (%)
  related TEAE: Alopecia: 0 n (%)
  related TEAE: Arthralgia: 0 n (%)
  related TEAE: Constipation: 1 (9.1) n (%)
  related TEAE: Diarrhea: 1 (9.1) n (%)
  related TEAE: Dysgeusia: 0 n (%)
  related TEAE: Eructation: 0 n (%)
  related TEAE: Fatigue: 1 (9.1) n (%)
  related TEAE: Flatulence: 0 n (%)
  related TEAE: Hot Flush: 2 (18.2) n (%)
  related TEAE: Hyperhidrosis: 0 n (%)
  related TEAE: Nail Disorder: 0 n (%)
  related TEAE: Nausea: 3 (27.3) n (%)
  related TEAE: Neutrophil Count Decreased: 0 n (%)
  related TEAE: Platelet Count Decreased: 0 n (%)
  related TEAE: Tremor: 0 n (%)
  related TEAE: Vomiting: 1 (9.1) n (%)
400 mg QD (N = 6)
  Patients with Any Compound (1-g) related TEAE: 3 (50.0) n (%)
  Patients with Any TEAE: 4 (66.7) n (%)
  TEAE: Abdominal Distension: 0 n (%)
  TEAE: Abdominal Pain: 0 n (%)
  TEAE: Acute Kidney Injury: 0 n (%)
  TEAE: Adrenal Insufficiency: 0 n (%)
  TEAE: Alopecia: 1 (16.7) n (%)
  TEAE: Anaemia: 0 n (%)
  TEAE: Anxiety: 0 n (%)
  TEAE: Arthralgia: 0 n (%)
  TEAE: Axillary Vein Thrombosis: 0 n (%)
  TEAE: Back Pain: 0 n (%)
  TEAE: Basal Cell Carcinoma: 0 n (%)
  TEAE: Breast Pain: 0 n (%)
  TEAE: Confusional State: 0 n (%)
  TEAE: Constipation: 1 (16.7) n (%)
  TEAE: Cough: 0 n (%)
  TEAE: Covid-19 Pneumonia: 0 n (%)
  TEAE: Dehydration: 0 n (%)
  TEAE: Diarrhoea: 1 (16.7) n (%)
  TEAE: Dizziness: 0 n (%)
  TEAE: Dysgeusia: 1 (16.7) n (%)
  TEAE: Dyspepsia: 0 n (%)
  TEAE: Dyspnoea: 1 (16.7) n (%)
  TEAE: Dysuria: 0 n (%)
  TEAE: Eructation: 1 (16.7) n (%)
  TEAE: Fall: 0 n (%)
  TEAE: Fatigue: 2 (33.3) n (%)
  TEAE: Flatulence: 1 (16.7) n (%)
  TEAE: Fracture: 0 n (%)
  TEAE: Fungal Infection: 0 n (%)
  TEAE: Haematoma: 0 n (%)
  TEAE: Hot Flush: 0 n (%)
  TEAE: Hyperglycaemia: 0 n (%)
  TEAE: Hyperhidrosis: 0 n (%)
  TEAE: Hypokalaemia: 0 n (%)
  TEAE: Hypotension: 1 (16.7) n (%)
  TEAE: Influenza Like Illness: 0 n (%)
  TEAE: Insomnia: 1 (16.7) n (%)
  TEAE: Lower Respiratory Tract Congestion: 0 n (%)
  TEAE: Lymphocyte Count Decreased: 0 n (%)
  TEAE: Muscle Spasm: 1 (16.7) n (%)
  TEAE: Muscular Weakness: 1 (16.7) n (%)
  TEAE: Musculoskeletal Stiffness: 0 n (%)
  TEAE: Nail Disorder: 1 (16.7) n (%)
  TEAE: Nasal Congestion: 0 n (%)
